Assay results from patent publication US7820707B2, “Heterocyclic derivatives” (N.V. Organon, priority 2006, dated 2010).

Target: T1, AMPA (GluR1) receptor (Homo sapiens, UniProt P42261)
T1 construct: expressed in transfected cells; host or cells: HEK cells (HEK.GluR1(i), kept under hygromycin selection)
Experiment: Ca2+ influx assay (FLEXstation, Fluo-3) for positive modulation of the AMPA (GluR1) receptor in HEK.GluR1(i) cells
Type: cell-based
Details: glutamate +/- test compound, Ca2+ response with fluo3-AM
Excerpt: The compounds in this invention may be tested using a biological assay which measures Ca^2+ influx mediated through positive modulation of the AMPA (GluR1) receptor using standard techniques in the art such as, but not limited to, a FLEXstation (manufactured by Molecular Devices, Sunnyvale, Calif.). An optical readout using fluorescent probes is employed to measure ion channel dependent changes in intracellular ion concentration or membrane potential. The assay utilises the Ca^2+ conductance of functional homomeric GluR1(i) AMPA receptors to generate glutamate-dependent Ca^2+ responses. Influx of Ca^2+ through the ion channel is measured indirectly through an increase in intracellular Ca^2+ levels using the calcium sensitive dye such as, but not limited to, Fluo-3 (Molecular Devices, Sunnyvale, Calif.) in FLEXstation. A positive AMPA receptor modulator, in the presence of glutamate, will result in an influx of Ca^2+ through the ion channel which can be measured indirectly through an increase in intracellular Ca^2+ levels using the calcium sensitive dye Fluo-3 in FLEXstation.
HEK.GluR1(i) cells were maintained in DMEM supplemented with 10% fetaclone II, 1% non-essential amino acids and 150 μg/mL hygromycin, at 37° C./5% CO2. […]

T1 sequence (P42261 19-906 isoform P42261-2 limits assumed, species assumed): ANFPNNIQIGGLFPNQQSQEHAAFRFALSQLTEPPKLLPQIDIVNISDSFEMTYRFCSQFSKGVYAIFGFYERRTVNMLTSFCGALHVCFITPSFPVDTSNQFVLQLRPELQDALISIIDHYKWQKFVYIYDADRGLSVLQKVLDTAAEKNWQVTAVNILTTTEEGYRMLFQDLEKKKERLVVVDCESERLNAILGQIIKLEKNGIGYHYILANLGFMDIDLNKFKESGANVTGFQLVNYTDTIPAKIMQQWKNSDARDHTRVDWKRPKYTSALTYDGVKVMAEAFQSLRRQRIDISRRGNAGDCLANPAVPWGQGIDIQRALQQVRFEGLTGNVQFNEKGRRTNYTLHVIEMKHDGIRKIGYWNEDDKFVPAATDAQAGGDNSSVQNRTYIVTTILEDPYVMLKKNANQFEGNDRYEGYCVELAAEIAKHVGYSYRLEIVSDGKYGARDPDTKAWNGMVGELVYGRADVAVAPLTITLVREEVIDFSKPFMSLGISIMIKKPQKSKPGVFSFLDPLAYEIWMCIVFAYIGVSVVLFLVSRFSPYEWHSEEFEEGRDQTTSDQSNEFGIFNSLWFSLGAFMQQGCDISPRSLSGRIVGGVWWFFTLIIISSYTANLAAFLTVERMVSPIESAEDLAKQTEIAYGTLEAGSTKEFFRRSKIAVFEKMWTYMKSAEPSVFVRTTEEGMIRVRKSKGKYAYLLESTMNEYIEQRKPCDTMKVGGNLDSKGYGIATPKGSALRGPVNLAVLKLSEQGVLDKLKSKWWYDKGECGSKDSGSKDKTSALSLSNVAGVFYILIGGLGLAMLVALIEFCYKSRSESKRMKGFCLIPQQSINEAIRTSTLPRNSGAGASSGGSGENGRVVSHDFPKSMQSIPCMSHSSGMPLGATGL

EC50: 2200 nM
Compound: CC(O)c1cn(CC(=O)Nc2sc3c(c2C(N)=O)CCCC3)nc1C(F)(F)F (stereo not shown) [Example 67, 2-(2-(4-(1-hydroxyethyl)-3-(trifluoromethyl)-1H-pyrazol-1-yl)acetamido)-4,5,6,7-tetrahydrobenzo[b]thiophene-3-carboxamide]
